In patent publication US9161935B2 (TEVA PHARMACEUTICAL INDUSTRIES, LTD., priority 2012, dated 2015):

Tests used:
[1] = in vivo; cited from earlier work
[2] = test system: Moderate to severe Crohn's disease (CD) subjects; experiment: Phase IIa trial CD-LAQ-201: safety/tolerability (adverse events); format: in vivo, human
From the text: Safety/Tolerability • 1. Adverse events (AEs). • 2. Clinical laboratory values. • 3. Vital signs. • 4. ECG. • 5. Proportion of subjects who prematurely discontinue treatment. • 6. Proportion of subjects who prematurely discontinue treatment due to AEs. • 7. Time to premature treatment discontinuation. • 8. Time to premature treatment discontinuation due to AEs.

CCN(C(=O)c1c(O)c2c(Cl)cccc2n(C)c1=O)c1ccccc1 [laquinimod]
oral bioavailability [1]: high
dose response relationship for the overall incidence of AEs ([2]; 0.5-2.0 mg/day): no apparent dose response relationship
Common Adverse Events: Abdominal Distension ([2]; Laq 0.5 mg (N = 29)): 10.3%
Common Adverse Events: Abdominal Pain ([2]; Laq 0.5 mg (N = 29)): 17.2%
Common Adverse Events: Abdominal Pain Upper ([2]; Laq 0.5 mg (N = 29)): 3.4%
Common Adverse Events: Alanine Aminotransferase Increased ([2]; Laq 0.5 mg (N = 29)): 0%
Common Adverse Events: Asthenia ([2]; Laq 0.5 mg (N = 29)): 3.4%
Common Adverse Events: Back Pain ([2]; Laq 0.5 mg (N = 29)): 10.3%
Common Adverse Events: Cough ([2]; Laq 0.5 mg (N = 29)): 6.9%
Common Adverse Events: Crohn's Disease^a ([2]; Laq 0.5 mg (N = 29)): 6.9%
Common Adverse Events: Diarrhoea ([2]; Laq 0.5 mg (N = 29)): 20.7%
Common Adverse Events: Dizziness ([2]; Laq 0.5 mg (N = 29)): 3.4%
Common Adverse Events: Fatigue ([2]; Laq 0.5 mg (N = 29)): 6.9%
Common Adverse Events: Headache ([2]; Laq 0.5 mg (N = 29)): 24.1%
Common Adverse Events: Myalgia ([2]; Laq 0.5 mg (N = 29)): 0%
Common Adverse Events: Nausea ([2]; Laq 0.5 mg (N = 29)): 3.4%
Common Adverse Events: Pyrexia ([2]; Laq 0.5 mg (N = 29)): 24.1%
Common Adverse Events: Rectal Haemorrhage ([2]; Laq 0.5 mg (N = 29)): 0%
Common Adverse Events: Tachycardia ([2]; Laq 0.5 mg (N = 29)): 0%
Common Adverse Events: Vomiting ([2]; Laq 0.5 mg (N = 29)): 17.2%
Common Adverse Events: Abdominal Distension ([2]; Laq 1.0 mg (N = 30)): 0%
Common Adverse Events: Abdominal Pain ([2]; Laq 1.0 mg (N = 30)): 13.3%
Common Adverse Events: Abdominal Pain Upper ([2]; Laq 1.0 mg (N = 30)): 0%
Common Adverse Events: Alanine Aminotransferase Increased ([2]; Laq 1.0 mg (N = 30)): 10%
Common Adverse Events: Asthenia ([2]; Laq 1.0 mg (N = 30)): 6.7%
Common Adverse Events: Back Pain ([2]; Laq 1.0 mg (N = 30)): 10%
Common Adverse Events: Cough ([2]; Laq 1.0 mg (N = 30)): 10%
Common Adverse Events: Crohn's Disease^a ([2]; Laq 1.0 mg (N = 30)): 16.7%
Common Adverse Events: Diarrhoea ([2]; Laq 1.0 mg (N = 30)): 3.3%
Common Adverse Events: Dizziness ([2]; Laq 1.0 mg (N = 30)): 3.3%
Common Adverse Events: Fatigue ([2]; Laq 1.0 mg (N = 30)): 0%
Common Adverse Events: Headache ([2]; Laq 1.0 mg (N = 30)): 26.7%
Common Adverse Events: Myalgia ([2]; Laq 1.0 mg (N = 30)): 3.3%
Common Adverse Events: Nausea ([2]; Laq 1.0 mg (N = 30)): 20%
Common Adverse Events: Pyrexia ([2]; Laq 1.0 mg (N = 30)): 3.3%
Common Adverse Events: Rectal Haemorrhage ([2]; Laq 1.0 mg (N = 30)): 3.3%
Common Adverse Events: Tachycardia ([2]; Laq 1.0 mg (N = 30)): 0%
Common Adverse Events: Vomiting ([2]; Laq 1.0 mg (N = 30)): 20%
Common Adverse Events: Abdominal Distension ([2]; Laq 1.5 mg (N = 29)): 3.4%
Common Adverse Events: Abdominal Pain ([2]; Laq 1.5 mg (N = 29)): 24.1%
Common Adverse Events: Abdominal Pain Upper ([2]; Laq 1.5 mg (N = 29)): 6.9%
Common Adverse Events: Alanine Aminotransferase Increased ([2]; Laq 1.5 mg (N = 29)): 0%
Common Adverse Events: Asthenia ([2]; Laq 1.5 mg (N = 29)): 10.3%
Common Adverse Events: Back Pain ([2]; Laq 1.5 mg (N = 29)): 13.8%
Common Adverse Events: Cough ([2]; Laq 1.5 mg (N = 29)): 6.9%
Common Adverse Events: Crohn's Disease^a ([2]; Laq 1.5 mg (N = 29)): 17.2%
Common Adverse Events: Diarrhoea ([2]; Laq 1.5 mg (N = 29)): 0%
Common Adverse Events: Dizziness ([2]; Laq 1.5 mg (N = 29)): 10.3%
Common Adverse Events: Fatigue ([2]; Laq 1.5 mg (N = 29)): 10.3%
Common Adverse Events: Headache ([2]; Laq 1.5 mg (N = 29)): 24.1%
Common Adverse Events: Myalgia ([2]; Laq 1.5 mg (N = 29)): 0%
Common Adverse Events: Nausea ([2]; Laq 1.5 mg (N = 29)): 6.9%
Common Adverse Events: Pyrexia ([2]; Laq 1.5 mg (N = 29)): 20.7%
Common Adverse Events: Rectal Haemorrhage ([2]; Laq 1.5 mg (N = 29)): 10.3%
Common Adverse Events: Tachycardia ([2]; Laq 1.5 mg (N = 29)): 10.3%
Common Adverse Events: Vomiting ([2]; Laq 1.5 mg (N = 29)): 3.4%
Common Adverse Events: Abdominal Distension ([2]; Laq 2.0 mg (N = 29)): 3.4%
Common Adverse Events: Abdominal Pain ([2]; Laq 2.0 mg (N = 29)): 24.1%
Common Adverse Events: Abdominal Pain Upper ([2]; Laq 2.0 mg (N = 29)): 17.2%
Common Adverse Events: Alanine Aminotransferase Increased ([2]; Laq 2.0 mg (N = 29)): 3.4%
Common Adverse Events: Asthenia ([2]; Laq 2.0 mg (N = 29)): 6.9%
Common Adverse Events: Back Pain ([2]; Laq 2.0 mg (N = 29)): 3.4%
Common Adverse Events: Cough ([2]; Laq 2.0 mg (N = 29)): 3.4%
Common Adverse Events: Crohn's Disease^a ([2]; Laq 2.0 mg (N = 29)): 13.8%
Common Adverse Events: Diarrhoea ([2]; Laq 2.0 mg (N = 29)): 10.3%
Common Adverse Events: Dizziness ([2]; Laq 2.0 mg (N = 29)): 3.4%
Common Adverse Events: Fatigue ([2]; Laq 2.0 mg (N = 29)): 0%
Common Adverse Events: Headache ([2]; Laq 2.0 mg (N = 29)): 44.8%
Common Adverse Events: Myalgia ([2]; Laq 2.0 mg (N = 29)): 17.2%
Common Adverse Events: Nausea ([2]; Laq 2.0 mg (N = 29)): 20.7%
Common Adverse Events: Pyrexia ([2]; Laq 2.0 mg (N = 29)): 13.8%
Common Adverse Events: Rectal Haemorrhage ([2]; Laq 2.0 mg (N = 29)): 0%
Common Adverse Events: Tachycardia ([2]; Laq 2.0 mg (N = 29)): 3.4%
Common Adverse Events: Vomiting ([2]; Laq 2.0 mg (N = 29)): 20.7%
tolerability ([2]; active Crohns disease): well tolerated
change from Baseline in biochemical or hematological parameters ([2]; any of the dose groups): no consistent trends in change from Baseline
deaths during the study ([2]; in vivo): No subject died
severity of most AEs ([2]; in vivo): mild or moderate
changes in vital signs or ECGs ([2]; laquinimod dose groups): no clinically significant changes
most common SAE: CD (exacerbation), % of patients ([2]; laquinimod groups, pooled placebo 1.6%): 3.4-6.9%
overall incidence of AEs ([2]; laquinimod groups, pooled placebo 82.5%): 86.2-96.7%
